In patent publication US10195185B2, “3-(1H-imidazo[4,5-C]pyridin-2-yl)-1H-pyrazolo[4,3-B]pyridines and therapeutic uses thereof” (Samumed, LLC, priority 2015, dated 2019):

Experiments:
[1] = test system: primary human mesenchymal stem cells (hMSCs); experiment: Induction of chondrogenesis in hMSCs (nodule area, Rhodamine B / Nile Red); assay type: cell-based; conditions: TGF-β3 as positive control; for Emax: read-out: Max. Activity as % TGF-β3 activity; for EC50: concentration required to induce 50% levels of chondrogenesis, read-out: Conc (nM) of 50% TGF-β3 activity
Method: Representative compounds were screened using primary human mesenchymal stem cells (hMSCs) to determine their ability to induce chondrogenesis (process by which cartilage is developed).
Primary human mesenchymal stem cells (hMSCs) were purchased from Lonza (Walkersville, Md.) and expanded in Mesenchymal Stem Cell Growth Media (Lonza). Cells between passage 3 and 6 were used for the experiments.
Each compound was dissolved in DMSO as a 10 mM stock and used to prepare compound source plates. For the 96 well assay, serial dilution (1:3, 6-point dose-response curves from 2700 nM to 10 nM) and compound transfer was performed using the ECHO 550 (Labcyte, Sunnyvale, Calif.) into 96-well clear bottom assay plates (Greiner Bio-One) with appropriate DMSO backfill for a final DMSO concentration of 0.03%. hMSCs were plated at 20,000 cells/well in 250 μL/well Incomplete Chondrogenic Induction Medium (Lonza; DMEM, dexamethasone, ascorbate, insulin-transferrin-selenium [ITS supplement], gentamycin-amphotericin [GA-1000], sodium pyruvate, proline and L-glutamine). TGF-β3 (10 ng/mL) was used as a positive control for differentiation while negative control wells were treated with 75 nL DMSO for normalization and calculating EC50 values. For the 384 well assay, serial dilution (1:3, 8-point dose-response curves from 5000 nM to 2.2 nM) and compound transfer was performed using the ECHO 550 (Labcyte, Sunnyvale, Calif.) into 384-well clear bottom assay plates (Greiner Bio-One) with appropriate DMSO backfill for a final DMSO concentration of 0.03%. hMSCs were plated at 8,000 cells/well in 80 μL/well Incomplete Chondrogenic Induction Medium (Lonza; DMEM, dexamethasone, ascorbate, insulin-transferrin-selenium [ITS supplement], gentamycin-amphotericin [GA-1000], sodium pyruvate, proline and L-glutamine). TGF-β3 (10 ng/mL) was used as a positive control for differentiation while negative control wells were treated with 25 nL DMSO for normalization and calculating EC50 values. Cells were incubated at 37° C. and 5% CO2 for 6 days. To image chondrogenic nodules, the cells were fixed using 4% formaldehyde (Electron Microscopy Sciences), and stained with 2 μg/mL Rhodamine B (Sigma-Aldrich) and 20 μM Nile Red (Sigma-Aldrich) [Johnson K., et. al, A Stem Cell-Based Approach to Cartilage Repair, Science, (2012), 336(6082), 717-721]. The nodules imaged (25 images per well for 96 well plates and 9 images per well for 384 well plates at 10× magnification) by excitation at 531 nm and emission at 625 nm and quantified using the CellInsight CX5 (Thermo Scientific). Area of nodules in each well was normalized to the average of 3 DMSO treated wells on the same plate using Excel (Microsoft Inc.). The normalized averages (fold change over DMSO) of 2 or 3 replicate wells for each compound concentration were calculated. Due to solubility limitations of some of the compounds, curve fitting was incomplete leading to inaccurate EC50 determinations.
Using TGF-β3 as a positive control, the concentration of representative compounds required to induce 50% levels of chondrogenesis is reported. In addition, the maximum activity of each compound and the respective dose that each compound reached maximum chondrogenesis activity is reported.

[2] = test system: IL-6 in human monocyte cell line (THP-1 cells); experiment: IL-6 inhibition in LPS-stimulated THP-1 cells (HTRF); assay type: cell-based; conditions: IL-6 in LPS-stimulated THP-1 cells; for EC50: HTRF; for inhibition at 10 µM: read-out: percent inhibition in brackets beside EC50 >10 μM
In short: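 Readout is the 665/620 nm HTRF ratio for secreted IL-6, normalized to DMSO wells, with EC50 from a variable-slope four-parameter fit, or % inhibition at 10 μM when above 10 μM. Cells (1% FBS, 24 h beforehand) got compound for 2 h, then LPS 500 ng/mL for 22 h at 37° C; top dose 10 μM, 0.1% DMSO.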

| Compound | Emax [1] [%] | EC50 [2] [nM] | inhibition at 10 µM [2] [%] | EC50 [1] [nM] |
| --- | --- | --- | --- | --- |
| CN(C)Cc1cncc(-c2ccc3[nH]nc(-c4nc5c(N6CCCCC6)nccc5[nH]4)c3n2)c1 [Compound 181, N,N-Dimethyl-1-(5-(3-(4-(piperidin-1-yl)-1H-imidazo[4,5-c]pyridin-2-yl)-1H-pyrazolo [4,3-b]pyridin-5-yl)pyridin-3-yl)methanamine] | 43 | > 10000 | 36.5 | – |
| COc1cccc(-c2nccc3[nH]c(-c4n[nH]c5ccc(-c6cccnc6)nc45)nc23)c1 [Compound 994, 3-(4-(3-Methoxyphenyl)-1H-imidazo[4,5-c]pyridin-2-yl)-5-(pyridin-3-yl)-1H-pyrazolo[4,3-b]pyridine] | 51 | > 10000 | 18.6 | 30 |
| CC(C)(C)C(=O)Nc1cncc(-c2ccc3[nH]nc(-c4nc5c(-c6ccc(Cl)s6)nccc5[nH]4)c3n2)c1 [Compound 1043, N-(5-(3-(4-(5-Chlorothiophen-2-yl)-1H-imidazo[4,5-c]pyridin-2-yl)-1H-pyrazolo[4,3-b]pyridin-5-yl)pyridin-3-yl)pivalamide] | 67 | > 10000 | 0 | 10 |
| Clc1ccc(-c2nccc3[nH]c(-c4n[nH]c5ccc(-c6cncc(CN7CCCC7)c6)nc45)nc23)s1 [Compound 1049, 3-(4-(5-Chlorothiophen-2-yl)-1H-imidazo[4,5-c]pyridin-2-yl)-5-(5-(pyrrolidin-1-ylmethyl)pyridin-3-yl)-1H-pyrazolo [4,3-b]pyridine] | 59 | > 10000 | 13.2 | 10 |
| CCCC(=O)Nc1cncc(-c2ccc3[nH]nc(-c4nc5c(-c6ccncc6)nccc5[nH]4)c3n2)c1 [Compound 129, N-(5-(3-(4-(Pyridin-4-yl)-1H-imidazo[4,5-c]pyridin-2-yl)-1H-pyrazolo[4,3-b]pyridin-5-yl)pyridin-3-yl)butyramide] | 70 | > 10000 | 12.5 | 300 |
| COc1cccc(-c2nccc3[nH]c(-c4n[nH]c5ccc(-c6cncc(NC(=O)Cc7ccccc7)c6)nc45)nc23)c1 [Compound 1000, N-(5-(3-(4-(3-methoxyphenyl)-1H-imidazo[4,5-c]pyridin-2-yl)-1H-pyrazolo [4,3-b]pyridin-5-yl)pyridin-3-yl)-2-phenylacetamide] | 41 | > 10000 | 11.4 | – |
| c1cncc(-c2ccc3[nH]nc(-c4nc5c(-c6cccnc6)nccc5[nH]4)c3n2)c1 [Compound 88, 5-(Pyridin-3-yl)-3-(4-(pyridin-3-yl)-1H-imidazo[4,5-c]pyridin-2-yl)-1H-pyrazolo[4,3-b]pyridine] | 70 | > 10000 | 20.4 | 100 |
| CC(C)(C)C(=O)Nc1cncc(-c2ccc3[nH]nc(-c4nc5c(-c6ccc(F)cc6)nccc5[nH]4)c3n2)c1 [Compound 36, N-(5-(3-(4-(4-Fluorophenyl)-1H-imidazo[4,5-c]pyridin-2-yl)-1H-pyrazolo [4,3-b]pyridin-5-yl)pyridin-3-yl)pivalamide] | 56 | > 10000 | 0 | 10 |
| CCNCc1cncc(-c2ccc3[nH]nc(-c4nc5c(-c6ccccn6)nccc5[nH]4)c3n2)c1 [Compound 146, N-((5-(3-(4-(Pyridin-2-yl)-1H-imidazo[4,5-c]pyridin-2-yl)-1H-pyrazolo[4,3-b]pyridin-5-yl)pyridin-3-yl)methyl)ethanamine] | 28 | > 10000 | 6.7 | – |
| CCNCc1cncc(-c2ccc3[nH]nc(-c4nc5c(-c6ccoc6)nccc5[nH]4)c3n2)c1 [Compound 314, N-((5-(3-(4-(Furan-3-yl)-1H-imidazo[4,5-c]pyridin-2-yl)-1H-pyrazolo[4,3-b]pyridin-5-yl)pyridin-3-yl)methyl)ethanamine] | 33 | > 10000 | 36 | – |
